Laboratory results reported in US8901118B2, “Compounds and methods for kinase modulation, and indications therefor” (Plexxikon Inc., priority 2010, dated 2014).

Test: Relative solubility by turbidity in aqueous buffers (pH 1.5, 4.5, 6.8, 7.4)
Assay type: physicochemical
Conditions: for turbidity threshold (L, M, H) 1.4: pH 1.5 (SGF); for turbidity threshold (L, M, H) 4.5: pH 4.5 (SIF); for turbidity threshold (L, M, H) 6.8: pH 6.8 (SIF); for turbidity threshold (L, M, H) 7.4: pH 7.4 (HEPES)
Summary of the method: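 Reported value: concentration at which optical density at 490, 535 and 650 nm passes 0.01, taken as the mean of the three wavelengths. Buffers were 0.5M NaCl pH 1.5, 0.05M NaH2PO4 pH 4.5 or 6.8, and 10 mM HEPES/150 mM NaCl pH 7.4, each receiving serial 1:1 DMSO dilutions of a 25 mM stock.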

SMILES	turbidity threshold (L, M, H) 1.4	turbidity threshold (L, M, H) 4.5	turbidity threshold (L, M, H) 6.8	turbidity threshold (L, M, H) 7.4
Clc1cnc2[nH]cc(Cc3cnc(NC4CCCCC4)nc3)c2c1 [Compound P-3001, [5-(5-chloro-1H-pyrrolo[2,3-b]pyridin-3-ylmethyl)-pyrimidin-2-yl]-cyclohexyl-amine]	H (high solubility if the threshold concentration is >250 μm)	L (low solubility if the threshold concentration is <31.3 μM)	L (low solubility if the threshold concentration is <31.3 μM)	L (low solubility if the threshold concentration is <31.3 μM)
Cc1cnc2[nH]cc(Cc3cnc(Nc4ccc(C(F)(F)F)nc4)nc3)c2c1 [Compound P-3018, [5-(5-Methyl-1H-pyrrolo[2,3-b]pyridin-3-ylmethyl)-pyrimidin-2-yl]-(6-trifluoromethyl-pyridin-3-yl)-amine]	H (high solubility if the threshold concentration is >250 μm)	M (moderate solubility if the threshold concentration is 31.3 μM to 250 μM)	M (moderate solubility if the threshold concentration is 31.3 μM to 250 μM)	M (moderate solubility if the threshold concentration is 31.3 μM to 250 μM)
COc1ccc(Nc2ccc(C(=O)c3c[nH]c4ncc(C)cc34)c(F)n2)cn1 [Compound P-3040, [2-Fluoro-6-(6-methoxy-pyridin-3-ylamino)-pyridin-3-yl]-(5-methyl-1H-pyrrolo[2,3-b]pyridin-3-yl)-methanone]	M (moderate solubility if the threshold concentration is 31.3 μM to 250 μM)	M (moderate solubility if the threshold concentration is 31.3 μM to 250 μM)	M (moderate solubility if the threshold concentration is 31.3 μM to 250 μM)	M (moderate solubility if the threshold concentration is 31.3 μM to 250 μM)
Cc1cnc2[nH]cc(C(=O)c3ccc(Nc4ccc(C)nc4)nc3F)c2c1 [Compound P-3043, [2-Fluoro-6-(6-methyl-pyridin-3-ylamino)-pyridin-3-yl]-(5-methyl-1H-pyrrolo[2,3-b]pyridin-3-yl)-methanone]	M (moderate solubility if the threshold concentration is 31.3 μM to 250 μM)	M (moderate solubility if the threshold concentration is 31.3 μM to 250 μM)	M (moderate solubility if the threshold concentration is 31.3 μM to 250 μM)	M (moderate solubility if the threshold concentration is 31.3 μM to 250 μM)
Cc1ccc(Nc2ccc(C(=O)c3c[nH]c4ncc(Cl)cc34)c(F)n2)cn1 [Compound P-3044, (5-Chloro-1H-pyrrolo[2,3-b]pyridin-3-yl)-[2-fluoro-6-(6-methyl-pyridin-3-ylamino)-pyridin-3-yl]-methanone]	L (low solubility if the threshold concentration is <31.3 μM)	L (low solubility if the threshold concentration is <31.3 μM)	L (low solubility if the threshold concentration is <31.3 μM)	M (moderate solubility if the threshold concentration is 31.3 μM to 250 μM)
CCOc1ccc(Nc2ccc(C(=O)c3c[nH]c4ncc(C)cc34)c(F)n2)cn1 [Compound P-3045, [6-(6-ethoxy-pyridin-3-ylamino)-2-fluoro-pyridin-3-yl]-(5-methyl-1H-pyrrolo[2,3-b]pyridin-3-yl)-methanone]	M (moderate solubility if the threshold concentration is 31.3 μM to 250 μM)	M (moderate solubility if the threshold concentration is 31.3 μM to 250 μM)	M (moderate solubility if the threshold concentration is 31.3 μM to 250 μM)	L (low solubility if the threshold concentration is <31.3 μM)
COc1ccc(Nc2ccc(Cc3c[nH]c4ncnc(C)c34)c(F)n2)cn1 [Compound P-4002, [6-Fluoro-5-(4-methyl-7H-pyrrolo[2,3-d]pyrimidin-5-ylmethyl)-pyridin-2-yl]-(6-methoxy-pyridin-3-yl)-amine]	H (high solubility if the threshold concentration is >250 μm)	M (moderate solubility if the threshold concentration is 31.3 μM to 250 μM)	M (moderate solubility if the threshold concentration is 31.3 μM to 250 μM)	M (moderate solubility if the threshold concentration is 31.3 μM to 250 μM)
COc1ncnc2[nH]cc(Cc3ccc(Nc4ccc(Cl)nc4)nc3F)c12 [Compound P-4003, (6-Chloro-pyridin-3-yl)-[6-fluoro-5-(4-methoxy-7H-pyrrolo[2,3-d]pyrimidin-5-ylmethyl)-pyridin-2-yl]-amine]	M (moderate solubility if the threshold concentration is 31.3 μM to 250 μM)	M (moderate solubility if the threshold concentration is 31.3 μM to 250 μM)	M (moderate solubility if the threshold concentration is 31.3 μM to 250 μM)	M (moderate solubility if the threshold concentration is 31.3 μM to 250 μM)
CCOc1ncnc2[nH]cc(Cc3ccc(Nc4ccc(C)nc4)nc3F)c12 [Compound P-4017, [5-(4-Ethoxy-7H-pyrrolo[2,3-d]pyrimidin-5-ylmethyl)-6-fluoro-pyridin-2-yl]-(6-methyl-pyridin-3-yl)-amine]	M (moderate solubility if the threshold concentration is 31.3 μM to 250 μM)	M (moderate solubility if the threshold concentration is 31.3 μM to 250 μM)	M (moderate solubility if the threshold concentration is 31.3 μM to 250 μM)	L (low solubility if the threshold concentration is <31.3 μM)
CCOc1ncnc2[nH]cc(Cc3ccc(Nc4ccc(OC)nc4)nc3F)c12 [Compound P-4018, [5-(4-Ethoxy-7H-pyrrolo[2,3-d]pyrimidin-5-ylmethyl)-6-fluoro-pyridin-2-yl]-(6-methoxy-pyridin-3-yl)-amine]	M (moderate solubility if the threshold concentration is 31.3 μM to 250 μM)	L (low solubility if the threshold concentration is <31.3 μM)	L (low solubility if the threshold concentration is <31.3 μM)	L (low solubility if the threshold concentration is <31.3 μM)
COCCOc1ncnc2[nH]cc(Cc3ccc(Nc4ccc(OC)nc4)nc3F)c12 [Compound P-4019, {6-Fluoro-5-[4-(2-methoxy-ethoxy)-7H-pyrrolo[2,3-d]pyrimidin-5-ylmethyl]-pyridin-2-yl}-(6-methoxy-pyridin-3-yl)-amine]	M (moderate solubility if the threshold concentration is 31.3 μM to 250 μM)	L (low solubility if the threshold concentration is <31.3 μM)	L (low solubility if the threshold concentration is <31.3 μM)	L (low solubility if the threshold concentration is <31.3 μM)
